Data from PubChem BioAssay (NCI).
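Growth conditions: 96-well plates. Treatment: test compound, 48 hours, 5 concentrations. Analysis: linear interpolation between bracketing concentrations; unreached endpoints set to highest concentration. TGI: total growth inhibition.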

What was measured:
Assay in all cases: NCI anticancer screen, dose series, 48 h
786-0 renal = test system: 786-0 renal
A498 renal = test system: A498 renal
A549 NSCLC = test system: A549 NSCLC
ACHN renal = test system: ACHN renal
BT-549 breast = test system: BT-549 breast
CAKI-1 renal = test system: CAKI-1 renal
CCRF-CEM leukemia = test system: CCRF-CEM leukemia
COLO 205 colon = test system: COLO 205 colon
DU-145 prostate = test system: DU-145 prostate
EKVX NSCLC = test system: EKVX NSCLC
HCC-2998 colon = test system: HCC-2998 colon
HCT-116 colon = test system: HCT-116 colon
HCT-15 colon = test system: HCT-15 colon
HL-60(TB) leukemia = test system: HL-60(TB) leukemia
HOP-62 NSCLC = test system: HOP-62 NSCLC
HOP-92 NSCLC = test system: HOP-92 NSCLC
HS 578T breast = test system: HS 578T breast
HT29 colon = test system: HT29 colon
IGROV1 ovarian = test system: IGROV1 ovarian
K-562 leukemia = test system: K-562 leukemia
KM12 colon = test system: KM12 colon
LOX IMVI melanoma = test system: LOX IMVI melanoma
M14 melanoma = test system: M14 melanoma
MALME-3M melanoma = test system: MALME-3M melanoma
MCF7 breast = test system: MCF7 breast
MDA-MB-231 breast = test system: MDA-MB-231 breast
MDA-MB-435 = test system: MDA-MB-435
MDA-N = test system: MDA-N
MOLT-4 leukemia = test system: MOLT-4 leukemia
NCI-H226 lung = test system: NCI-H226 lung
NCI-H23 lung = test system: NCI-H23 lung
NCI-H460 lung = test system: NCI-H460 lung
NCI-H522 lung = test system: NCI-H522 lung
NCI/ADR-RES ovarian = test system: NCI/ADR-RES ovarian
OVCAR-3 ovarian = test system: OVCAR-3 ovarian
OVCAR-4 ovarian = test system: OVCAR-4 ovarian
OVCAR-5 ovarian = test system: OVCAR-5 ovarian
OVCAR-8 ovarian = test system: OVCAR-8 ovarian
PC-3 prostate = test system: PC-3 prostate
RPMI-8226 leukemia = test system: RPMI-8226 leukemia
RXF 393 renal = test system: RXF 393 renal
SF-268 CNS = test system: SF-268 CNS
SF-295 CNS = test system: SF-295 CNS
SF-539 CNS = test system: SF-539 CNS
SK-MEL-2 melanoma = test system: SK-MEL-2 melanoma
SK-MEL-28 melanoma = test system: SK-MEL-28 melanoma
SK-MEL-5 melanoma = test system: SK-MEL-5 melanoma
SK-OV-3 ovarian = test system: SK-OV-3 ovarian
SN12C renal = test system: SN12C renal
SNB-19 CNS = test system: SNB-19 CNS
SNB-75 CNS = test system: SNB-75 CNS
SR leukemia = test system: SR leukemia
SW-620 colon = test system: SW-620 colon
T-47D breast = test system: T-47D breast
TK-10 renal = test system: TK-10 renal
U251 CNS = test system: U251 CNS
UACC-257 melanoma = test system: UACC-257 melanoma
UACC-62 melanoma = test system: UACC-62 melanoma
UO-31 renal = test system: UO-31 renal

SMILES: C=C1c2nc3ccccc3n2C=C(c2ccc(C)cc2)N1c1ccccc1
- TGI (786-0 renal): > 59.9 µM
- TGI (A498 renal): > 100 µM
- TGI (A549 NSCLC): > 100 µM
- TGI (ACHN renal): > 100 µM
- TGI (BT-549 breast): > 86.7 µM
- TGI (CAKI-1 renal): > 100 µM
- TGI (CCRF-CEM leukemia): > 54.8 µM
- TGI (COLO 205 colon): > 33.2 µM
- TGI (DU-145 prostate): > 100 µM
- TGI (EKVX NSCLC): > 40.6 µM
- TGI (HCC-2998 colon): 10.7 µM
- TGI (HCT-116 colon): > 81 µM
- TGI (HCT-15 colon): > 38 µM
- TGI (HL-60(TB) leukemia): 16.3 µM
- TGI (HOP-62 NSCLC): > 100 µM
- TGI (HOP-92 NSCLC): > 100 µM
- TGI (HS 578T breast): > 30.6 µM
- TGI (HT29 colon): 9.77 µM
- TGI (IGROV1 ovarian): > 100 µM
- TGI (K-562 leukemia): > 100 µM
- TGI (KM12 colon): 22 µM
- TGI (LOX IMVI melanoma): 66 µM
- TGI (M14 melanoma): > 61.2 µM
- TGI (MALME-3M melanoma): > 43.3 µM
- TGI (MCF7 breast): > 100 µM
- TGI (MDA-MB-231 breast): > 53.6 µM
- TGI (MDA-MB-435): 10.7 µM
- TGI (MDA-N): 4.39 µM
- TGI (MOLT-4 leukemia): 99 µM
- TGI (NCI-H226 lung): 15.3 µM
- TGI (NCI-H23 lung): > 100 µM
- TGI (NCI-H460 lung): 27.1 µM
- TGI (NCI-H522 lung): 25.2 µM
- TGI (NCI/ADR-RES ovarian): > 29.1 µM
- TGI (OVCAR-3 ovarian): > 40.9 µM
- TGI (OVCAR-4 ovarian): > 100 µM
- TGI (OVCAR-5 ovarian): > 100 µM
- TGI (OVCAR-8 ovarian): > 63.4 µM
- TGI (PC-3 prostate): > 79.5 µM
- TGI (RPMI-8226 leukemia): > 34.5 µM
- TGI (RXF 393 renal): > 44 µM
- TGI (SF-268 CNS): > 100 µM
- TGI (SF-295 CNS): 13.6 µM
- TGI (SF-539 CNS): 7.46 µM
- TGI (SK-MEL-2 melanoma): > 46.1 µM
- TGI (SK-MEL-28 melanoma): > 100 µM
- TGI (SK-MEL-5 melanoma): 31.9 µM
- TGI (SK-OV-3 ovarian): > 100 µM
- TGI (SN12C renal): > 100 µM
- TGI (SNB-19 CNS): > 100 µM
- TGI (SNB-75 CNS): 15.9 µM
- TGI (SR leukemia): 6.82 µM
- TGI (SW-620 colon): > 100 µM
- TGI (T-47D breast): > 100 µM
- TGI (TK-10 renal): > 100 µM
- TGI (U251 CNS): 68.2 µM
- TGI (UACC-257 melanoma): > 100 µM
- TGI (UACC-62 melanoma): > 100 µM
- TGI (UO-31 renal): > 100 µM

SMILES: CCOC(=O)[C@@H]1[C@@H]2NC(=O)N[C@@]1(C)Oc1ccccc12
- TGI (786-0 renal): > 100 µM
- TGI (A498 renal): > 100 µM
- TGI (ACHN renal): > 100 µM
- TGI (BT-549 breast): > 100 µM
- TGI (CAKI-1 renal): > 100 µM
- TGI (CCRF-CEM leukemia): > 100 µM
- TGI (COLO 205 colon): > 100 µM
- TGI (DU-145 prostate): > 100 µM
- TGI (EKVX NSCLC): > 100 µM
- TGI (HCC-2998 colon): > 100 µM
- TGI (HCT-116 colon): > 100 µM
- TGI (HCT-15 colon): > 100 µM
- TGI (HL-60(TB) leukemia): > 100 µM
- TGI (HOP-62 NSCLC): > 100 µM
- TGI (HOP-92 NSCLC): > 100 µM
- TGI (HS 578T breast): > 100 µM
- TGI (HT29 colon): > 100 µM
- TGI (IGROV1 ovarian): > 100 µM
- TGI (K-562 leukemia): > 100 µM
- TGI (KM12 colon): > 100 µM
- TGI (LOX IMVI melanoma): > 100 µM
- TGI (M14 melanoma): > 100 µM
- TGI (MALME-3M melanoma): > 100 µM
- TGI (MCF7 breast): > 100 µM
- TGI (MDA-MB-231 breast): > 100 µM
- TGI (MDA-MB-435): > 100 µM
- TGI (MDA-N): > 100 µM
- TGI (MOLT-4 leukemia): > 100 µM
- TGI (NCI-H226 lung): > 100 µM
- TGI (NCI-H23 lung): > 100 µM
- TGI (NCI-H460 lung): > 100 µM
- TGI (NCI-H522 lung): > 100 µM
- TGI (NCI/ADR-RES ovarian): > 100 µM
- TGI (OVCAR-3 ovarian): > 100 µM
- TGI (OVCAR-4 ovarian): > 100 µM
- TGI (OVCAR-5 ovarian): > 100 µM
- TGI (OVCAR-8 ovarian): > 100 µM
- TGI (PC-3 prostate): > 100 µM
- TGI (RPMI-8226 leukemia): > 100 µM
- TGI (RXF 393 renal): > 100 µM
- TGI (SF-268 CNS): > 100 µM
- TGI (SF-295 CNS): > 100 µM
- TGI (SF-539 CNS): > 100 µM
- TGI (SK-MEL-2 melanoma): > 100 µM
- TGI (SK-MEL-28 melanoma): > 100 µM
- TGI (SK-MEL-5 melanoma): > 100 µM
- TGI (SK-OV-3 ovarian): > 100 µM
- TGI (SN12C renal): > 100 µM
- TGI (SNB-19 CNS): > 100 µM
- TGI (SNB-75 CNS): > 100 µM
- TGI (SR leukemia): > 100 µM
- TGI (SW-620 colon): > 100 µM
- TGI (T-47D breast): > 100 µM
- TGI (TK-10 renal): > 100 µM
- TGI (U251 CNS): > 100 µM
- TGI (UACC-257 melanoma): > 100 µM
- TGI (UACC-62 melanoma): > 100 µM
- TGI (UO-31 renal): > 100 µM
